# From patent publication US20260166162A1, “CARBON CHAIN SUBSTANCE FOR REGULATING TRANSMEMBRANE TRANSPORT AND FLUIDITY OF CELL MEMBRANES, AND PREPARATION AND USE THEREOF” (priority 2022, published 2026)
# Like-named read-outs stand apart in the source and are kept apart here.
# What was measured:
# Staphylococcus aureus = test: Bacteriostasis/sterilization test (plate count); type: cell-based; details: for inhibition rate: concentration 0.035 mM; for IC50: read-out: half inhibition concentration
# HIV pseudovirus = type: cell-based, HIV pseudovirus HIV18A-41
# Escherichia coli = test: Bacteriostasis/sterilization test (plate count); type: cell-based
# Klebsiella pneumoniae = test: Bacteriostasis/sterilization test (plate count); type: cell-based
# H7N9 pseudovirus = type: cell-based, Influenza pseudovirus H7N9-Fluc
# [1] = test system: Methicillin-resistant Staphylococcus aureus; test: Bacteriostasis/sterilization test (plate count); type: cell-based; details: 0.035 mM (Table 25)
# Streptococcus pneumoniae = test: Bacteriostasis/sterilization test (plate count); type: cell-based
# SARS-CoV-2 pseudovirus [2] = test system: SARS-CoV-2 pseudovirus; set-up: species or system SARS-CoV-2 pseudovirus B.1.526.2
# H5N1 pseudovirus = type: cell-based, Influenza pseudovirus H5N1-Fluc
# [3] = mouse, in vivo, po
# Pseudomonas aeruginosa = test: Bacteriostasis/sterilization test (plate count); type: cell-based
# SARS-CoV-2 pseudovirus [4] = type: cell-based, SARS-CoV-2 pseudovirus B.1.526.2
# VERO E6 cells = test: Cytotoxicity (CCK-8) on VERO E6 cells; details: […] to 0.035 mM
# [5] = test system: HPV pseudovirus (HPV6-GFP); details: read-out: median neutralization concentration
# [6] = test system: Human hair follicle stem cells; test: Human hair follicle stem cell proliferation (EdU); type: cell-based; details: 20 μM, 30 μM, 50 μM, 6 h
# TNF-α [7] = test: LPS inflammatory aging in C57BL/6 mice, serum TNF-α (Example II-55, Table II-37); type: in vivo, mouse; details: 1 mM, 200 μl/time once a day for 30 days, LPS C57BL/6 mice
# IL-1β [8] = test: LPS inflammatory aging in C57BL/6 mice, serum IL-1β (Example II-55, Table II-35); type: in vivo, mouse; details: 1 mM, 200 μl/time, once a day, 30 days
# IL-6 [9] = test: Skin photoaging (UVB) in BALB/c nude mice, serum IL-6 (Example II-54, Table II-34); type: in vivo, mouse; details: serum, UVB-irradiated BALB/c nude mice, 40 days
# Hela cells [10] = test: Cell membrane fluidity (Laurdan fluorescence recovery) in Hela cells; type: cell-based
# TNF-α [11] = test: Skin photoaging (UVB) in BALB/c nude mice, serum TNF-α (Example II-54, Table II-32); type: in vivo, mouse; details: UVB-irradiated BALB/c nude mice, 40 days
# IL-6 [12] = test: LPS inflammatory aging in C57BL/6 mice, serum IL-6 (Example II-55, Table II-36); type: in vivo, mouse; details: 1 mM, 200 μl/time once a day for 30 days; serum, LPS C57BL/6 mice
# IL-1β [13] = test: Skin photoaging (UVB) in BALB/c nude mice, serum IL-1β (Example II-54, Table II-33); type: in vivo, mouse; details: serum, UVB-irradiated BALB/c nude mice, 40 days
# Hela cells [14] = test: Cell migration (scratch) in Hela cells; type: cell-based; details: 24 h
# Protocol: Hela cells in logarithmic growth phase (cell bank of Chinese Academy of Sciences) were trypsinized into a single cell suspension and inoculated into a 6-well culture plate. […] The next day 5 nM Thr-EPA was added by scratching with a 200-microliter gun tip against the horizontal line on the vertical back of the lid of the 6-well plate. 24 h later, samples were taken and photographed. […] Hela cells in logarithmic growth phase (cell bank of Chinese Academy of Sciences) were trypsinized into a single cell suspension and inoculated into a 6-well culture plate. […] The next day […] Thr-EPA was added by scratching with a 200-microliter gun tip against the horizontal line on the vertical back of the lid of the 6-well plate. 24 h later, samples were taken and photographed.
compound,measurement,setting,value
CCC=CCC=CCC=CCC=CCC=CCC=CCCC(=O)NCCCCC(N)C(=O)O (stereo not shown),Inhibition rate (%),Staphylococcus aureus,99%
same,inhibition rate,Staphylococcus aureus,greater than 99%
same,IC50,Staphylococcus aureus,9 µM
same,Sterilization rate (%),HIV pseudovirus,99%
same,Inhibition rate (%),Escherichia coli,99%
same,Inhibition rate (%),Klebsiella pneumoniae,99%
same,Sterilization rate (%),H7N9 pseudovirus,99%
same,Inhibition rate (%),[1],99%
same,Inhibition rate (%),Streptococcus pneumoniae,99%
same,membrane structure of the virus (TEM),SARS-CoV-2 pseudovirus [2],broken
same,Sterilization rate (%),H5N1 pseudovirus,99%
same,"liver, heart, kidney, bone/hepatobiliary function in blood versus control group",[3],no difference
same,"physiological state, body weight, fur color, food consumption, mental state versus control group",[3],not significantly different
same,Inhibition rate (%),Pseudomonas aeruginosa,99%
same,Sterilization rate (%),SARS-CoV-2 pseudovirus [4],99%
same,effect of the complex on cells,VERO E6 cells,less than 10%
CCC=CCC=CCC=CCC=CCC=CCC=CCCC(=O)OCC(N)C(=O)O (stereo not shown),Inhibition rate (%),Staphylococcus aureus; 0.035 mM (Table 25),99%
same,inhibition rate,Staphylococcus aureus,greater than 99%
same,IC50,Staphylococcus aureus,9 µM
same,Sterilization rate (%),HIV pseudovirus,99%
same,Inhibition rate (%),Escherichia coli; 0.035 mM (Table 25),99%
same,Inhibition rate (%),Klebsiella pneumoniae; 0.035 mM (Table 25),99%
same,Sterilization rate (%),H7N9 pseudovirus,99%
same,Inhibition rate (%),[1],99%
same,Inhibition rate (%),Streptococcus pneumoniae; 0.035 mM (Table 25),99%
same,Sterilization rate (%),H5N1 pseudovirus,99%
same,Inhibition rate (%),Pseudomonas aeruginosa; 0.035 mM (Table 25),99%
same,IC50,[5],9 µM
same,Sterilization rate (%),SARS-CoV-2 pseudovirus [4],99%
same,proliferation of human hair follicle stem cells,[6],effectively promote the proliferation
CCC=CCC=CCC=CCC=CCC=CCC=CCCC(=O)OC(C)C(N)C(=O)O (stereo not shown),Inhibition rate (%),Staphylococcus aureus; 0.035 mM (Table 25),99%
same,inhibition rate,Staphylococcus aureus,greater than 99%
same,IC50,Staphylococcus aureus,9 µM
same,TNF-α,TNF-α [7],53 pg/mL
same,IL-1β,IL-1β [8],55 pg/mL
same,Sterilization rate (%),HIV pseudovirus,99%
same,Inhibition rate (%),Escherichia coli; 0.035 mM (Table 25),99%
same,IL-6,IL-6 [9]; 30 μM smeared,36 pg/mL
same,IL-6,IL-6 [9]; 50 μM smeared,35 pg/mL
same,IL-6,IL-6 [9]; 100 μM smeared,34 pg/mL
same,Fluorescence recovery rate %,"Hela cells [10]; 2 nM, 20 s",65.48%
same,Fluorescence recovery rate %,"Hela cells [10]; 2 nM, 40 s",66.31%
same,Fluorescence recovery rate %,"Hela cells [10]; 2 nM, 60 s",66.25%
same,Fluorescence recovery rate %,"Hela cells [10]; 2 nM, 80 s",66.78%
same,Fluorescence recovery rate %,"Hela cells [10]; 5 nM, 20 s",65.47%
same,Fluorescence recovery rate %,"Hela cells [10]; 5 nM, 40 s",65.23%
same,Fluorescence recovery rate %,"Hela cells [10]; 5 nM, 60 s",65.38%
same,Fluorescence recovery rate %,"Hela cells [10]; 5 nM, 80 s",66.45%
same,Fluorescence recovery rate %,"Hela cells [10]; 10 nM, 20 s",65.89%
same,Fluorescence recovery rate %,"Hela cells [10]; 10 nM, 40 s",66.04%
same,Fluorescence recovery rate %,"Hela cells [10]; 10 nM, 60 s",66.59%
same,Fluorescence recovery rate %,"Hela cells [10]; 10 nM, 80 s",66.71%
same,Fluorescence recovery rate %,"Hela cells [10]; 50 nM, 20 s",67.42%
same,Fluorescence recovery rate %,"Hela cells [10]; 50 nM, 40 s",67.43%
same,Fluorescence recovery rate %,"Hela cells [10]; 50 nM, 60 s",67.57%
same,Fluorescence recovery rate %,"Hela cells [10]; 50 nM, 80 s",68.06%
same,Fluorescence recovery rate %,"Hela cells [10]; 50 μM, 20 s",66.54%
same,Fluorescence recovery rate %,"Hela cells [10]; 50 μM, 40 s",73.45%
same,Fluorescence recovery rate %,"Hela cells [10]; 50 μM, 60 s",77.91%
same,Fluorescence recovery rate %,"Hela cells [10]; 50 μM, 80 s",84.66%
same,Fluorescence recovery rate %,"Hela cells [10]; 100 μM, 20 s",66.60%
same,Fluorescence recovery rate %,"Hela cells [10]; 100 μM, 40 s",74.67%
same,Fluorescence recovery rate %,"Hela cells [10]; 100 μM, 60 s",78.31%
same,Fluorescence recovery rate %,"Hela cells [10]; 100 μM, 80 s",86.44%
same,Inhibition rate (%),Klebsiella pneumoniae; 0.035 mM (Table 25),99%
same,Sterilization rate (%),H7N9 pseudovirus,99%
same,Inhibition rate (%),[1],99%
same,Inhibition rate (%),Streptococcus pneumoniae; 0.035 mM (Table 25),99%
same,TNF-α,TNF-α [11]; 30 μM smeared,53 pg/mL
same,TNF-α,TNF-α [11]; 50 μM smeared,47 pg/mL
same,TNF-α,TNF-α [11]; 100 μM smeared,49 pg/mL
same,membrane structure of the virus (TEM),SARS-CoV-2 pseudovirus [2],broken
same,IL-6,IL-6 [12],50 pg/mL
same,Sterilization rate (%),H5N1 pseudovirus,99%
same,Inhibition rate (%),Pseudomonas aeruginosa; 0.035 mM (Table 25),99%
same,IL-1β,IL-1β [13]; 30 μM smeared,54 pg/mL
same,IL-1β,IL-1β [13]; 50 μM smeared,56 pg/mL
same,IL-1β,IL-1β [13]; 100 μM smeared,50 pg/mL
same,Sterilization rate (%),SARS-CoV-2 pseudovirus [4],99%
CC/C=C\C/C=C\C/C=C\CCCCCCCC(=O)NCCCCC(N)C(=O)O (stereo not shown) [Lys-ALA],proliferation of human hair follicle stem cells,[6],effectively promote the proliferation
CCC=CCC=CCC=CCC=CCC=CCCCC(=O)OC(C)C(N)C(=O)O (stereo not shown) [Thr-EPA],cell migration,Hela cells [14]; 5 nM,inhibited cell migration
same,cell migration,Hela cells [14]; 50 µM,promoted cell migration
